Measurements from patent publication US12655116B2, “Substituted isophthalic acid diamides” (Bayer Aktiengesellschaft, priority 2020, dated 2026).

How the values were obtained:
ALOMY [1] = experiment: Pre-emergence herbicidal action against ALOMY; assay type: in vivo, Alopecurus myosuroides; settings: pre-emergence
Method in brief: (§1)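 Greenhouse pots of sandy loam held seeds covered with soil, onto which the compound was applied before emergence. An aqueous suspension or emulsion of WP or EC was used at 600 to 800 l/ha with 0.2% wetting agent. Percent damage was judged visually at 3 weeks.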

MATIN [2] = experiment: Pre-emergence herbicidal action against MATIN; assay type: in vivo, Matricaria inodora
Method in brief: as §1

DIGSA [3] = experiment: Pre-emergence herbicidal action against DIGSA; assay type: in vivo, Digitaria sanguinalis
Method in brief: as §1

VIOTR [4] = experiment: Pre-emergence herbicidal action against VIOTR; assay type: in vivo, Viola tricolor
Method in brief: as §1

PHBPU [5] = experiment: Pre-emergence herbicidal action against PHBPU; assay type: in vivo, Pharbitis purpurea; settings: dosage 80 g/ha
Method in brief: as §1

VERPE = experiment: Pre-emergence herbicidal action against VERPE; assay type: in vivo, Veronica persica; settings: dosage 80 g/ha
Method in brief: as §1

ABUTH [6] = experiment: Pre-emergence herbicidal action against ABUTH; assay type: in vivo, Abutilon theophrasti; settings: for Pre-emergence action against ABUTH (herbicidal activity in percent): dosage 20 g/ha, scored visually after 3 weeks vs untreated controls, 100% = plants have died, 0% = like control plants
Method in brief: as §1

ECHCG [7] = experiment: Pre-emergence herbicidal action against ECHCG; assay type: in vivo, Echinochloa crus-galli; settings: 80 g/ha
Method in brief: as §1

POLCO = experiment: Pre-emergence herbicidal action against POLCO; assay type: in vivo, Polygonum convolvulus; settings: dosage 80 g/ha
Method in brief: as §1

AMARE [8] = experiment: Post-emergence herbicidal action against AMARE; assay type: in vivo, Amaranthus retroflexus; settings: 20 g/ha, visual assessment about 3 weeks after treatment, 100% = plants have died, 0% = like control plants
Method in brief: (§2)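 Foliar application at one-leaf stage of formulated test compounds, aqueous spray at 600–800 l/ha with 0.2% wetting agent. Greenhouse, optimal conditions, ~3 weeks; damage scored visually in % relative to untreated plants.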

AMARE [9] = experiment: Pre-emergence herbicidal action against AMARE; assay type: in vivo, Amaranthus retroflexus
Method in brief: as §1

PHBPU [10] = experiment: Post-emergence herbicidal action against PHBPU; assay type: in vivo, Pharbitis purpurea; settings: dosage 20 g/ha
Method in brief: as §2

SETVI = experiment: Pre-emergence herbicidal action against SETVI; assay type: in vivo, Setaria viridis; settings: dosage 80 g/ha
Method in brief: as §1

ECHCG [11] = experiment: Post-emergence herbicidal action against ECHCG; assay type: in vivo, Echinochloa crus-galli
Method in brief: as §2

ALOMY [12] = experiment: Post-emergence herbicidal action against ALOMY; assay type: in vivo, Alopecurus myosuroides; settings: Alopecurus myosuroides, 504 h, visual assessment about 3 weeks after treatment vs untreated controls
Method in brief: as §2

VIOTR [13] = experiment: Post-emergence herbicidal action against VIOTR; assay type: in vivo, Viola tricolor
Method in brief: as §2

ABUTH [14] = experiment: Post-emergence herbicidal action against ABUTH; assay type: in vivo, Abutilon theophrasti; settings: visual assessment about 3 weeks after treatment vs untreated controls
Method in brief: as §2

DIGSA [15] = experiment: Post-emergence herbicidal action against DIGSA; assay type: in vivo, Digitaria sanguinalis; settings: 20 g/ha
Method in brief: as §2

MATIN [16] = experiment: Post-emergence herbicidal action against MATIN; assay type: in vivo, Matricaria inodora; settings: dosage 20 g/ha
Method in brief: as §2

AVEFA = experiment: Pre-emergence herbicidal action against AVEFA; assay type: in vivo, Avena fatua; settings: 80 g/ha, pre-emergence
Method in brief: as §1

[17] = 80 g/ha, scored visually after 3 weeks vs untreated controls (100% = plants have died, 0% = like control plants)
[18] = 20 g/ha, scored visually after 3 weeks vs untreated controls, 100% = plants have died, 0% = like control plants

## CCn1nnnc1NC(=O)c1ccc(C(F)(F)F)c(C(=O)NCCOC)c1Cl [Example 2-138]
ALOMY [1]; [17]
  Pre-emergence action against ALOMY (herbicidal activity): 90%
MATIN [2]; dosage 20 g/ha
  Pre-emergence action against MATIN in %: 90%
MATIN [2]; dosage 80 g/ha
  Pre-emergence action against MATIN in %: 100%
DIGSA [3]; dosage 20 g/ha
  Pre-emergence action against DIGSA in %: 100%
DIGSA [3]; dosage 80 g/ha
  Pre-emergence action against DIGSA in %: 100%
VIOTR [4]; dosage 20 g/ha
  Pre-emergence action against VIOTR in %: 90%
VIOTR [4]; dosage 80 g/ha
  Pre-emergence action against VIOTR in %: 100%
PHBPU [5]
  Pre-emergence action against PHBPU in %: 80%
VERPE
  Pre-emergence action against VERPE in %: 100%
ABUTH [6]; [17]
  Pre-emergence action against ABUTH (herbicidal activity): 100%
ABUTH [6]
  Pre-emergence action against ABUTH (herbicidal activity in percent): 80%
ECHCG [7]
  Pre-emergence action against ECHCG in %: 90%
POLCO
  Pre-emergence action against POLCO in %: 90%
AMARE [8]
  Post-emergence action at 20 g/ha against AMARE in %: 90%
AMARE [9]; [18]
  Pre-emergence action against AMARE in %: 100%
AMARE [9]; [17]
  Pre-emergence action against AMARE in %: 100%
PHBPU [10]
  Post-emergence action against PHBPU in %: 80%
SETVI
  Pre-emergence action against SETVI in %: 80%
ECHCG [11]; dosage 5 g/ha
  Post-emergence action against ECHCG in %: 80%
ECHCG [11]; dosage 20 g/ha
  Post-emergence action against ECHCG in %: 90%

## CCCNC(=O)c1c(Br)ccc(C(=O)Nc2nnnn2C)c1Cl [Example 1-184]
ALOMY [1]; Alopecurus myosuroides, 504 h, 80 g/ha, scored visually after 3 weeks vs untreated controls (100% = plants have died, 0% = like control plants)
  pest or weed control at 80 g/ha: 100%
ALOMY [1]; Alopecurus myosuroides, 504 h, 20 g/ha, scored visually after 3 weeks, 100% = plants have died, 0% = like control plants
  pest or weed control at 20 g/ha: 90%
MATIN [2]; Tripleurospermum inodorum, 504 h, dosage 20 g/ha
  pest or weed control at 20 g/ha: 80%
MATIN [2]; Tripleurospermum inodorum, 504 h, dosage 80 g/ha
  pest or weed control at 80 g/ha: 100%
VIOTR [4]; Viola tricolor, 504 h, dosage 80 g/ha
  pest or weed control at 80 g/ha: 90%
PHBPU [5]; Ipomoea purpurea, 504 h
  pest or weed control at 80 g/ha: 80%
VERPE; Veronica persica, 504 h
  pest or weed control at 80 g/ha: 90%
ABUTH [6]; Abutilon theophrasti, 504 h, 80 g/ha, scored visually after 3 weeks vs untreated controls (100% = plants have died, 0% = like control plants)
  pest or weed control at 80 g/ha: 100%
ECHCG [7]; Echinochloa crus-galli, 504 h
  pest or weed control at 80 g/ha: 100%
POLCO; Fallopia convolvulus, 504 h
  pest or weed control at 80 g/ha: 80%
AMARE [8]; Amaranthus retroflexus, 504 h
  pest or weed control at 20 g/ha: 100%
ALOMY [12]; dosage 5 g/ha
  pest or weed control at 5 g/ha: 80%
ALOMY [12]; dosage 20 g/ha
  pest or weed control at 20 g/ha: 80%
VIOTR [13]; Viola tricolor, 504 h, 20 g/ha
  pest or weed control at 20 g/ha: 90%
AMARE [9]; Amaranthus retroflexus, 504 h, 20 g/ha, scored visually after 3 weeks vs untreated controls, 100% = plants have died, 0% = like control plants
  pest or weed control at 20 g/ha: 100%
AMARE [9]; Amaranthus retroflexus, 504 h, 80 g/ha, scored visually after 3 weeks vs untreated controls, 100% = plants have died, 0% = like control plants
  pest or weed control at 80 g/ha: 100%
PHBPU [10]; Ipomoea purpurea, 504 h
  pest or weed control at 20 g/ha: 80%
ABUTH [14]; Abutilon theophrasti, 504 h, dosage 5 g/ha
  pest or weed control at 5 g/ha: 80%
ABUTH [14]; Abutilon theophrasti, 504 h, dosage 20 g/ha
  pest or weed control at 20 g/ha: 80%
ECHCG [11]; Echinochloa crus-galli, 504 h, dosage 20 g/ha
  pest or weed control at 20 g/ha: 100%

## CCn1nnnc1NC(=O)c1ccc(C(F)F)c(C(=O)NC)c1Br [Example 2-225]
ALOMY [1]; [17]
  Pre-emergence action against ALOMY (herbicidal activity): 100%
MATIN [2]; dosage 20 g/ha
  Pre-emergence action against MATIN in %: 80%
MATIN [2]; dosage 80 g/ha
  Pre-emergence action against MATIN in %: 100%
DIGSA [3]; dosage 20 g/ha
  Pre-emergence action against DIGSA in %: 100%
DIGSA [3]; dosage 80 g/ha
  Pre-emergence action against DIGSA in %: 100%
VIOTR [4]; dosage 20 g/ha
  Pre-emergence action against VIOTR in %: 80%
VIOTR [4]; dosage 80 g/ha
  Pre-emergence action against VIOTR in %: 100%
PHBPU [5]
  Pre-emergence action against PHBPU in %: 90%
VERPE
  Pre-emergence action against VERPE in %: 100%
ABUTH [6]; [17]
  Pre-emergence action against ABUTH (herbicidal activity): 100%
ABUTH [6]
  Pre-emergence action against ABUTH (herbicidal activity in percent): 100%
ECHCG [7]
  Pre-emergence action against ECHCG in %: 90%
DIGSA [15]
  Post-emergence action against DIGSA: 100%
POLCO
  Pre-emergence action against POLCO in %: 90%
AMARE [8]
  Post-emergence action at 20 g/ha against AMARE in %: 100%
VIOTR [13]; 5 g/ha
  Post-emergence action against VIOTR in %: 100%
VIOTR [13]; 20 g/ha
  Post-emergence action against VIOTR in %: 100%
MATIN [16]
  Post-emergence action against MATIN in %: 80%
AVEFA
  Pre-emergence action against AVEFA in %: 80%
AMARE [9]; [18]
  Pre-emergence action against AMARE in %: 100%
AMARE [9]; [17]
  Pre-emergence action against AMARE in %: 100%
ABUTH [14]; dosage 5 g/ha
  Post-emergence action against ABUTH in %: 100%
ABUTH [14]; dosage 20 g/ha
  Post-emergence action against ABUTH in %: 100%
SETVI
  Pre-emergence action against SETVI in %: 100%
ECHCG [11]; dosage 20 g/ha
  Post-emergence action against ECHCG in %: 100%
